# From patent US20240058315A1, “Pyridine and Pyrazine derivative for the Treatment of CF, COPD, and Bronchiectasis” (NOVARTIS AG, priority 2019, published 2024)
# pEC50: −log10 of the molar value.
# Legend:
# OATP1B1 = OATP1B1 (Homo sapiens (Human), UniProt Q9Y6L6); assay: in vitro inhibition of OATP1B1; format: in vitro ADME
# [1] = tested on: Pseudomonas aeruginosa Biotype 2 - dry; assay: Phase II study in COPD patients: sputum microbiology, Pseudomonas aeruginosa Biotype 2 - dry; format: in vivo
# Protocol: Patients were randomized and stratified by smoking status (former vs current smokers). The double-blind placebo-controlled treatment period was 28 days (Day 1 to Day 28) and included visits on Days 1, 14 and 28. Eligible patients were randomized in a 2:1 ratio to receive 300 mg b.i.d. of Compound A or matching placebo for 28 consecutive days. Of note, the first 4 patients enrolled randomized in this study received 450 mg b.i.d. of Compound A or placebo, prior to an amendment reducing the dose and thereafter the dose was reduced to 300 mg b.i.d. of Compound A. The single-blind placebo-controlled follow-up period was 28 days. The follow-up period included a visit on Day 29 for key primary and secondary objective efficacy assessments, weekly follow-up contact via telephone, and an End-of-Study (EOS) visit on Day 56.
# Spontaneous sputum was collected from patients and used to quantify colony forming units (CFUs) as a potential efficacy marker. The collected sputum samples were cultured for the following specific bacteria: Haemophilus parainfluenza, Haemophilus influenza, Pseudomonas aeruginosa, Moraxella, and Streptococcus pneumonia. In the event of bacterial growth for one or more of the above five pathogens, then the test result was reported, including the quantitative growth. In order to be included in the sputum analysis, a patient must have provided a sufficient sputum sample at baseline and at least one other visit (Day 14, Day 29 or EOS).
# A decrease in airway bacterial colonization as detected in the sputum is considered improvement. In Table 4, the frequency (n, %) of patients was reported by treatment with Compound A and type of bacteria. Within each treatment group, the percentage was calculated as number of patients who were colonized with bacteria divided with total number of patients who produced a sputum sample at that time point.
# wild type CTFR channel = wild type CTFR channel (Homo sapiens (Human), UniProt P13569); assay: in vitro EC50 against the wild type CFTR channel; format: cell-based
# Description: There is no preclinical in vivo model of CFTR potentiation.
# in vivo = conditions: monkey
# CYP2B6 = assay: Induction of CYP2B6; format: in vitro ADME
# Sequence of OATP1B1 (Q9Y6L6 whole entry): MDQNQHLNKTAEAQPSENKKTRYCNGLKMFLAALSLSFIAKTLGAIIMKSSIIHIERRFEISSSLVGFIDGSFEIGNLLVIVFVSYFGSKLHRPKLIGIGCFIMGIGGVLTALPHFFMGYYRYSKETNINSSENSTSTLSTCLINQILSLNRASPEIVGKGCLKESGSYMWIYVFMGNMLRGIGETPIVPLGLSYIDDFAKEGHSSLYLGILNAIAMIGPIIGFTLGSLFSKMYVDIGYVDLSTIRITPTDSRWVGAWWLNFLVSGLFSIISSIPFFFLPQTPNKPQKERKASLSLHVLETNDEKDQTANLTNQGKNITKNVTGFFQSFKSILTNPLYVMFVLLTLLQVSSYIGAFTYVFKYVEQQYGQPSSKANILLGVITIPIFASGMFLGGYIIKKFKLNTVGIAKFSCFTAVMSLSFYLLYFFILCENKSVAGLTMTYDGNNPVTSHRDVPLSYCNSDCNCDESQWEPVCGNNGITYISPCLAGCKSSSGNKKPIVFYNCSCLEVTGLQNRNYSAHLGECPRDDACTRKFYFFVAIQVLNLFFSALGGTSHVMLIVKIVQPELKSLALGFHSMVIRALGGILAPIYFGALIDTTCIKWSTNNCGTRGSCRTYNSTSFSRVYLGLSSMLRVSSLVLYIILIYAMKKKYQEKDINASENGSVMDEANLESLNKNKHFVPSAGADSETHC
# Sequence of wild type CTFR channel (P13569 whole entry): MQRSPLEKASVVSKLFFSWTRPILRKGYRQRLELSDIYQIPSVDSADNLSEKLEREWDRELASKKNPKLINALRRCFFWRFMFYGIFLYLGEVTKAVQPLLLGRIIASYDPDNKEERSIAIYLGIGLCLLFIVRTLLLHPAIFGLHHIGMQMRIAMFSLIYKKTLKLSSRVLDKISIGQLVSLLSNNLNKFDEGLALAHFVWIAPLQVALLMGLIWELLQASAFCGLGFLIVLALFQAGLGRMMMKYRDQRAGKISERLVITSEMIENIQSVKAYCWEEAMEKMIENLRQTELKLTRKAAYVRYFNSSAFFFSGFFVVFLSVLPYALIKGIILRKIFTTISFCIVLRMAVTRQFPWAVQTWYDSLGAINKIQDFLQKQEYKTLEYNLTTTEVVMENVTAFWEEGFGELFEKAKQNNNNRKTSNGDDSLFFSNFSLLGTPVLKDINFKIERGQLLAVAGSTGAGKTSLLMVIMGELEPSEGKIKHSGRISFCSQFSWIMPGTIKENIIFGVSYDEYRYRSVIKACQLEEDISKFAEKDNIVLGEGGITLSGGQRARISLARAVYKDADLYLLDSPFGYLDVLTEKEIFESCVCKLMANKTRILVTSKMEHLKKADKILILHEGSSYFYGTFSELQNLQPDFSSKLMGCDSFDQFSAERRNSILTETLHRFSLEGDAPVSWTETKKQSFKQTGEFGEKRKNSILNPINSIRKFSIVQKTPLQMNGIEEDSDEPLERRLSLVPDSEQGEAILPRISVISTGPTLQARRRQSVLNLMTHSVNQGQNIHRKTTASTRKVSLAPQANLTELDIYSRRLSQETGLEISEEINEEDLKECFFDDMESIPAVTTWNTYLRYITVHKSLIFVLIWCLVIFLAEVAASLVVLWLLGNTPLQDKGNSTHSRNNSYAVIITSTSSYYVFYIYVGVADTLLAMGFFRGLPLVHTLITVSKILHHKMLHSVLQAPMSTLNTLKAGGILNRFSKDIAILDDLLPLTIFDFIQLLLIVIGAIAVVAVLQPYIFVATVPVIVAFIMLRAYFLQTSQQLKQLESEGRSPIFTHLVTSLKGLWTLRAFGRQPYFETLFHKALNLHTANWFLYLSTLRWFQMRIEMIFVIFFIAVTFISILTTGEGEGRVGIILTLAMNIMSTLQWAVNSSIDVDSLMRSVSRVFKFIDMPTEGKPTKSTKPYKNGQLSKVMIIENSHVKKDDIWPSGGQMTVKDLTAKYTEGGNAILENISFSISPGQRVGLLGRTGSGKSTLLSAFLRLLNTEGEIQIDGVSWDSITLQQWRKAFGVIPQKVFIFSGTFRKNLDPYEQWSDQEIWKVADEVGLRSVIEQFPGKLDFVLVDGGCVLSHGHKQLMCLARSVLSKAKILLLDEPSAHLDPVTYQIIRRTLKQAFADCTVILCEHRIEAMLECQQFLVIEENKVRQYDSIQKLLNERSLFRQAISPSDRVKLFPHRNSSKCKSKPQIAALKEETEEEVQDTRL
smiles,measurement,setting,value
"COc1nc(C(=O)NC[C@](C)(O)C(F)(F)F)c(N)cc1C(F)(F)F (single isomer, unassigned) [Example 5]",inhibition of OATP1B1,OATP1B1,Weak in vitro inhibition
same,"patients colonized, n (%)",[1]; Baseline,2 (4.4) n (%)
same,"patients colonized, n (%)",[1]; D14,4 (9.3) n (%)
same,"patients colonized, n (%)",[1]; D29,2 (4.8) n (%)
same,"patients colonized, n (%)",[1]; EOS,1 (2.4) n (%)
same,pEC50,wild type CTFR channel,7.14
same,AUC(0-t),"in vivo; NOAEL exposure, AUC0-24 h (exposure threshold), chronic monkey toxicology study",91.7 µg·h/mL
same,AUC(0-t),"in vivo; upper range of the individual animal (monkey) exposures, AUC0-24 h",159 µg·h/mL
same,effect on co-medications mainly metabolized by CYP2B6,CYP2B6,induce
